Experimental data taken from ChEMBL document CHEMBL5108044, “Discovery of a Novel Potent STAT3 Inhibitor HP590 with Dual p-Tyr705/Ser727 Inhibitory Activity for Gastric Cancer Treatment” (J Med Chem, 2022).
The source made the active and inactive calls. No cut-off for these calls is given here.

Legend:
[1] = Toxicity in BALB/c nude mouse xenografted with human MKN-45 cells assessed as liver damage at 25 to 50 mg/kg, po qd administered for 5 weeks by H and E staining based analysis; type: organism-based; conditions: in vivo, 840 h, dose 25-50 mg/kg
MKN-45 [2] = assay: Induction of apoptosis in human MKN-45 cells assessed as necrotic cells 20 nM incubated for 48 hrs by FITC-annexin V/propidium iodide staining based flow cytometry (reference value: 10.3%); type: functional
MKN-45 [3] = assay: Antiproliferative activity against human MKN-45 cells assessed as reduction in cell viability incubated for 72 hrs by MTS assay; type: functional, cell-based; conditions: MKN-45, 72 h
[4] = target: T1, Signal transducer and activator of transcription 3 (Homo sapiens, UniProt P40763); assay: Inhibition of STAT3 phosphorylation at Tyr705 residue in human AGS cells upto 40 nM incubated upto 24 hrs by Western blotting analysis; type: cell-based
T1 sequence (P40763 whole entry): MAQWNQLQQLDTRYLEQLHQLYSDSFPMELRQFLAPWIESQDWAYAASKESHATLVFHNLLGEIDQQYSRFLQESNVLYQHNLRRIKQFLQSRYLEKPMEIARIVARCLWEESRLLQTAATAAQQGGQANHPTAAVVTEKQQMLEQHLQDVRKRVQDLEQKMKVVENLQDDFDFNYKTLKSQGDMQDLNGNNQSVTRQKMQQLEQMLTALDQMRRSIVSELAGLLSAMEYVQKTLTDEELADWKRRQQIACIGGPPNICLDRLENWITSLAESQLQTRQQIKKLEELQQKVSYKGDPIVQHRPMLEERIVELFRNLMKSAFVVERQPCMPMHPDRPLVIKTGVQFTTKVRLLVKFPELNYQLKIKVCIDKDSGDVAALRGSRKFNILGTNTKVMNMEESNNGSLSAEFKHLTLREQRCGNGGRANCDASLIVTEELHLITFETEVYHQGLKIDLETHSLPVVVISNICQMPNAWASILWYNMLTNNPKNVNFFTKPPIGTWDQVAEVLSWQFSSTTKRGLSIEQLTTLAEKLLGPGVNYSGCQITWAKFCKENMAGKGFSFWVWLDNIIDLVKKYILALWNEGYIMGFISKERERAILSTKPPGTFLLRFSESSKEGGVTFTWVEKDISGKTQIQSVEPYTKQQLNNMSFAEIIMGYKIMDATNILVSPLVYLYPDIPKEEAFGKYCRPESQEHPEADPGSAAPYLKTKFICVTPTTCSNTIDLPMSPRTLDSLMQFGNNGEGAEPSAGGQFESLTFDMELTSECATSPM

[5] = target: T1, Signal transducer and activator of transcription 3; assay: Inhibition of STAT3 phosphorylation at Tyr705 residue in human MKN-45 cells upto 40 nM by Western blotting analysis; type: cell-based; conditions: time <= 24.0 hrs, TDE = time-dependent effect
[6] = target: T1, Signal transducer and activator of transcription 3; assay: Binding affinity to human STAT3 transfected in HEK293T cells assessed as change in melting temperature at 5 uM by thermal shift assay; type: cell-based
[7] = target: Proto-oncogene tyrosine-protein kinase Src (Homo sapiens, UniProt P12931); assay: Inhibition of SRC (unknown origin)
Chain of Proto-oncogene tyrosine-protein kinase Src (P12931 2-536 limits assumed): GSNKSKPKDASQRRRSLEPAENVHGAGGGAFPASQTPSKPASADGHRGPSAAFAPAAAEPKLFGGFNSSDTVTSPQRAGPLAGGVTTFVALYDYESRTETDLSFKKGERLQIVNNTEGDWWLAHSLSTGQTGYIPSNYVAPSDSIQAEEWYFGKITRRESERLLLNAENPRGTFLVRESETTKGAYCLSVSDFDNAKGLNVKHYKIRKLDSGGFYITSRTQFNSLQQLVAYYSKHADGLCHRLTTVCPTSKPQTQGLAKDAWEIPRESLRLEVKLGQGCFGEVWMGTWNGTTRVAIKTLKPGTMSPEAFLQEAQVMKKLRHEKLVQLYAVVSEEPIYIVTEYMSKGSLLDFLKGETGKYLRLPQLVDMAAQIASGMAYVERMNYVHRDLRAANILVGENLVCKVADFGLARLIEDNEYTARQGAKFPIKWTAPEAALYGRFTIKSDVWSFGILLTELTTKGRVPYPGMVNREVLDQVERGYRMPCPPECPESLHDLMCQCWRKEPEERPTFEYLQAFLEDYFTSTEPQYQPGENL

[8] = target: T1, Signal transducer and activator of transcription 3; assay: Inhibition of STAT3 in human MKN-45 cells assessed as downregulation of c-Myc expression incubated up to 24 hrs by western blot analysis; type: cell-based; conditions: dose <= 40.0 nM, DDE = dose-dependent effect
[9] = target: T1, Signal transducer and activator of transcription 3; assay: Inhibition of STAT3 in human MGC-803 cells assessed as downregulation of c-Myc expression incubated up to 24 hrs by western blot analysis; type: cell-based; conditions: dose <= 40.0 nM, DDE = dose-dependent effect
[10] = target: T1, Signal transducer and activator of transcription 3; assay: Inhibition of STAT3 in human MGC-803 cells assessed as downregulation of cyclin D1 expression up to 40 nM by western blot analysis; type: cell-based; conditions: time <= 24.0 hrs, TDE = time-dependent effect
[11] = target: T1, Signal transducer and activator of transcription 3; assay: Inhibition of STAT3 in human MKN-45 cells assessed as downregulation of cyclin D1 expression at 10 to 40 nM incubated for 24 hrs by RT-PCR analysis; type: cell-based; conditions: dose 10-40 nM
[12] = target: T1, Signal transducer and activator of transcription 3; assay: Inhibition of STAT3 in human MKN-45 cells assessed as downregulation of c-myc expression at 10 to 40 nM incubated for 24 hrs by RT-PCR analysis; type: cell-based; conditions: dose 10-40 nM
[13] = target: T1, Signal transducer and activator of transcription 3; assay: Inhibition of STAT3 in human AGS cells assessed as downregulation of c-myc expression at 10 to 40 nM incubated for 24 hrs by RT-PCR analysis; type: cell-based; conditions: dose 10-40 nM
[14] = target: T1, Signal transducer and activator of transcription 3; assay: Inhibition of IL-6 induced STAT3 phosphorylation at Tyr705 residue in human MKN-45 cells at 40 nM preincubated for 24 hrs followed by IL-6 stimulation and measured after 30 min by Western blotting analysis; type: cell-based; conditions: time 24.5 hrs
[15] = target: T1, Signal transducer and activator of transcription 3; assay: Inhibition of IL-6 induced STAT3 phosphorylation at Tyr705 residue in human MGC-803 cells at 40 nM preincubated for 24 hrs followed by IL-6 stimulation and measured after 30 min by Western blotting analysis; type: cell-based; conditions: time 24.5 hrs
MKN-45 [16] = assay: Inhibition of mitochondrial respiration in STAT3 knockdown human MKN-45 cells assessed as maximal oxygen consumption rate incubated for 80 mins […]; type: functional, cell-based
MKN-45 [17] = assay: Antiproliferative activity against human MKN-45 cells assessed as cell viability incubated for 72 hrs by MTS assay; type: functional, cell-based; conditions: dose <= 100.0 nM, DDE = dose-dependent effect
AGS = assay: Antiproliferative activity against human AGS cells assessed as cell viability incubated for 72 hrs by MTS assay; type: functional, cell-based; conditions: dose <= 100.0 nM, DDE = dose-dependent effect
MGC-803 = assay: Antiproliferative activity against human MGC-803 cells assessed as cell viability incubated for 72 hrs by MTS assay; type: functional, cell-based; conditions: dose <= 100.0 nM, DDE = dose-dependent effect
[18] = Apparent volume of distribution in ICR mouse plasma at 1 mg/kg, iv measured up to 24 hrs by LC-MS/MS analysis; type: ADME, organism-based; conditions: read-out: Vz
MKN-45 [19] = assay: Induction of apoptosis in human MKN-45 cells assessed as necrotic cells 5 nM incubated for 48 hrs by FITC-annexin V/propidium iodide staining based flow cytometry (reference value: 10.3%); type: functional
MKN-45 [20] = assay: Induction of apoptosis in human MKN-45 cells assessed as early apoptic cells 10 nM incubated for 48 hrs by FITC-annexin V/propidium iodide staining based flow cytometry (reference value: 2.79%); type: functional
Cytochrome P450 1A2 = target: T2, Cytochrome P450 1A2 (Homo sapiens, UniProt P05177); assay: Inhibition of CYP1A2 in human liver microsome; type: ADME, microsomes
T2 sequence (P05177 whole entry): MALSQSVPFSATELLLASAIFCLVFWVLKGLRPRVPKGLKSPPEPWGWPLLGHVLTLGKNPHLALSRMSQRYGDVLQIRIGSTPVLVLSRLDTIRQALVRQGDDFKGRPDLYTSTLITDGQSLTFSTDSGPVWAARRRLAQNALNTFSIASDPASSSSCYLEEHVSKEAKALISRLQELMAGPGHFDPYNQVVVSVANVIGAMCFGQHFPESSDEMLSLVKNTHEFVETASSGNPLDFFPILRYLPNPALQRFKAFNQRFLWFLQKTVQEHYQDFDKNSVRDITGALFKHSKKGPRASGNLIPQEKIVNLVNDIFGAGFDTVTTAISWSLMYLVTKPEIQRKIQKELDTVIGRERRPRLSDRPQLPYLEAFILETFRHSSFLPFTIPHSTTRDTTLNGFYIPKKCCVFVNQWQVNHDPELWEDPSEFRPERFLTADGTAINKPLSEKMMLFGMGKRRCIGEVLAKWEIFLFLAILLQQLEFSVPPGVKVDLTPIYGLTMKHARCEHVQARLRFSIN

[21] = AUC (0 to infinity) in ICR mouse plasma at 10 mg/kg, po measured up to 24 hrs by LC-MS/MS analysis; type: ADME, organism-based; design: dose 10 mg/kg, time < 24 hrs, route po
[22] = Elimination half life in ICR mouse plasma at 1 mg/kg, iv measured up to 24 hrs by LC-MS/MS analysis; type: ADME, organism-based; conditions: read-out: beta t1/2 (converted)
MKN-45 [23] = assay: Potency index, ratio of IC50 for BBI608 to IC50 for test compound for antiproliferative activity against human MKN-45 cells assessed as reduction in cell viability incubated for 72 hrs by MTS assay; type: functional
MKN-45 [24] = assay: In vivo inhibition of STAT3 phosphorylation at Tyr705 residue in human MKN-45 cells xenografted in BALB/c nude mouse at 25 to 50 mg/kg, po qd administered for 5 weeks by western blot analysis; type: functional, organism-based; conditions: dose 25-50 mg/kg
MKN-45 [25] = assay: In vivo inhibition of STAT3 in human MKN-45 cells xenografted in BALB/c nude mouse assessed as reduction in STAT3 gene expression at 25 to 50 mg/kg, po qd administered for 5 weeks by Western blot analysis; type: functional, organism-based; conditions: dose 25-50 mg/kg
[26] = Toxicity in […] mouse xenografted with human MKN-45 cells assessed as spleen damage at 25 to 50 mg/kg, po qd administered for 5 weeks by H and E staining based analysis; type: organism-based; conditions: in vivo, 840 h, dose 25-50 mg/kg
[27] = Toxicity in […] mouse xenografted with human MKN-45 cells assessed as lung damage at 25 to 50 mg/kg, po qd administered for 5 weeks by H and E staining based analysis; type: organism-based; conditions: in vivo, 840 h, dose 25-50 mg/kg

O=C(c1ccc(-c2noc(-c3ccc(C(F)(F)F)cc3)n2)cc1)N1CCN(Cc2ccc(OCC(F)(F)F)cc2)CC1
Activity [1]: Non-Toxic
Activity (MKN-45 [2]): 11.3%
IC50 (MKN-45 [3]): 0.0093 µM
inhibition [4]: 100%
inhibition [5]: Tde
Activity [6]: Active
IC50 [7]: > 10 µM
inhibition [8]: Dde
inhibition [9]: Dde
inhibition [10]: Tde
inhibition [11]: Active
inhibition [12]: Active
inhibition [13]: Active
inhibition [14]: Active
inhibition [15]: Active
inhibition (MKN-45 [16]): Active
Activity (MKN-45 [17]): Dde
Activity (AGS): Dde
Activity (MGC-803): Dde
Vd [18]: 5.76 L/kg
Activity (MKN-45 [19]): 8.54%
Activity (MKN-45 [20]): 5.7%
IC50 (Cytochrome P450 1A2): > 50 µM
AUC(0-inf) [21]: 15500 ng·h/mL
half-life [22]: 9.06 h
Ratio IC50 (MKN-45 [23]): 30
inhibition (MKN-45 [24]): Active
inhibition (MKN-45 [25]): Active
Activity [26]: Non-Toxic
Activity [27]: Non-Toxic
